Experimental data from PubChem BioAssay (NCI).
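Values below derive from 48-hour exposures of cells grown in 96-well plates, with endpoints linearly interpolated between the two concentrations bracketing the appropriate inhibition level. TGI is the concentration that stops growth completely.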

Experiments:
Assay in all cases: NCI tumour cell line growth inhibition, 48 h
[1] = tested on: RPMI-8226 leukemia
[2] = tested on: SF-268 CNS
[3] = tested on: SNB-19 CNS
[4] = tested on: HT29 colon
[5] = tested on: OVCAR-5 ovarian
[6] = tested on: MDA-MB-435
[7] = tested on: MDA-MB-231 breast
[8] = tested on: ACHN renal
[9] = tested on: TK-10 renal
[10] = tested on: OVCAR-4 ovarian
[11] = tested on: HL-60(TB) leukemia
[12] = tested on: UO-31 renal
[13] = tested on: SK-MEL-5 melanoma
[14] = tested on: MDA-N
[15] = tested on: SR leukemia
[16] = tested on: RXF 393 renal
[17] = tested on: IGROV1 ovarian
[18] = tested on: SK-OV-3 ovarian
[19] = tested on: NCI-H522 lung
[20] = tested on: SF-539 CNS
[21] = tested on: 786-0 renal
[22] = tested on: HCT-15 colon
[23] = tested on: K-562 leukemia
[24] = tested on: CAKI-1 renal
[25] = tested on: MCF7 breast
[26] = tested on: HCT-116 colon
[27] = tested on: KM12 colon
[28] = tested on: LOX IMVI melanoma
[29] = tested on: EKVX NSCLC
[30] = tested on: COLO 205 colon
[31] = tested on: MOLT-4 leukemia
[32] = tested on: SN12C renal
[33] = tested on: NCI-H226 lung
[34] = tested on: PC-3 prostate
[35] = tested on: U251 CNS
[36] = tested on: T-47D breast
[37] = tested on: MALME-3M melanoma
[38] = tested on: NCI-H23 lung
[39] = tested on: SK-MEL-28 melanoma
[40] = tested on: CCRF-CEM leukemia
[41] = tested on: UACC-62 melanoma
[42] = tested on: SW-620 colon
[43] = tested on: HS 578T breast
[44] = tested on: OVCAR-8 ovarian
[45] = tested on: A498 renal
[46] = tested on: BT-549 breast
[47] = tested on: HOP-62 NSCLC
[48] = tested on: M14 melanoma
[49] = tested on: A549 NSCLC
[50] = tested on: SK-MEL-2 melanoma
[51] = tested on: HOP-92 NSCLC
[52] = tested on: HCC-2998 colon
[53] = tested on: OVCAR-3 ovarian
[54] = tested on: SF-295 CNS
[55] = tested on: NCI/ADR-RES ovarian
[56] = tested on: DU-145 prostate
[57] = tested on: SNB-75 CNS
[58] = tested on: NCI-H460 lung

Question: With Oc1c(Br)ccc2cccnc12 as the compound, how does the TGI [1] read?
Answer: The TGI was greater than 27.9 µM.

Question: What about the TGI [2] of the same compound?
Answer: Its TGI is greater than 100 µM.

Question: And the TGI [3]?
Answer: Its TGI is greater than 100 µM.

Question: What about the TGI [4] of the same compound?
Answer: Its TGI is greater than 35.8 µM.

Question: What about the TGI [5] of the same compound?
Answer: The TGI was greater than 100 µM.

Question: And the TGI [6]?
Answer: Its TGI is greater than 100 µM.

Question: What about the TGI [7] of the same compound?
Answer: The TGI was 24.7 µM.

Question: What about the TGI [8] of the same compound?
Answer: Its TGI is 55.8 µM.

Question: And the TGI [9]?
Answer: Its TGI is greater than 100 µM.

Question: What about the TGI [10] of the same compound?
Answer: The TGI was greater than 92.9 µM.

Question: And the TGI [11]?
Answer: The TGI was 1.32 µM.

Question: And the TGI [12]?
Answer: The TGI was 22.8 µM.

Question: And the TGI [13]?
Answer: The TGI was greater than 39.2 µM.

Question: And the TGI [14]?
Answer: Its TGI is greater than 100 µM.

Question: What about the TGI [15] of the same compound?
Answer: The TGI was greater than 27.7 µM.

Question: What about the TGI [16] of the same compound?
Answer: The TGI was 32.4 µM.

Question: And the TGI [17]?
Answer: The TGI was 15.6 µM.

Question: And the TGI [18]?
Answer: The TGI was 61.6 µM.

Question: What about the TGI [19] of the same compound?
Answer: Its TGI is 6.21 µM.

Question: And the TGI [20]?
Answer: The TGI was greater than 50.6 µM.

Question: What about the TGI [21] of the same compound?
Answer: The TGI was greater than 43.2 µM.

Question: And the TGI [22]?
Answer: Its TGI is greater than 100 µM.

Question: And the TGI [23]?
Answer: The TGI was greater than 31.4 µM.

Question: And the TGI [24]?
Answer: Its TGI is 60.3 µM.

Question: And the TGI [25]?
Answer: The TGI was 2.73 µM.

Question: What about the TGI [26] of the same compound?
Answer: The TGI was greater than 100 µM.

Question: And the TGI [27]?
Answer: Its TGI is greater than 100 µM.

Question: And the TGI [28]?
Answer: The TGI was greater than 28.5 µM.

Question: What about the TGI [29] of the same compound?
Answer: Its TGI is greater than 66.3 µM.

Question: What about the TGI [30] of the same compound?
Answer: Its TGI is greater than 33.8 µM.

Question: What about the TGI [31] of the same compound?
Answer: Its TGI is greater than 26.9 µM.

Question: And the TGI [32]?
Answer: Its TGI is greater than 100 µM.

Question: What about the TGI [33] of the same compound?
Answer: Its TGI is 38.5 µM.

Question: What about the TGI [34] of the same compound?
Answer: The TGI was greater than 100 µM.

Question: And the TGI [35]?
Answer: Its TGI is greater than 100 µM.

Question: And the TGI [36]?
Answer: Its TGI is 21.1 µM.

Question: What about the TGI [37] of the same compound?
Answer: Its TGI is greater than 64.4 µM.

Question: What about the TGI [38] of the same compound?
Answer: The TGI was 7.28 µM.

Question: What about the TGI [39] of the same compound?
Answer: Its TGI is greater than 100 µM.

Question: What about the TGI [40] of the same compound?
Answer: The TGI was 3.98 µM.

Question: And the TGI [41]?
Answer: Its TGI is 7 µM.

Question: And the TGI [42]?
Answer: The TGI was greater than 45.6 µM.

Question: And the TGI [43]?
Answer: Its TGI is 72.5 µM.

Question: What about the TGI [44] of the same compound?
Answer: Its TGI is greater than 100 µM.

Question: And the TGI [45]?
Answer: The TGI was 51.8 µM.

Question: What about the TGI [46] of the same compound?
Answer: The TGI was greater than 92.2 µM.

Question: What about the TGI [47] of the same compound?
Answer: Its TGI is greater than 100 µM.

Question: What about the TGI [48] of the same compound?
Answer: Its TGI is greater than 32.5 µM.

Question: And the TGI [49]?
Answer: The TGI was greater than 100 µM.

Question: And the TGI [50]?
Answer: Its TGI is greater than 100 µM.

Question: What about the TGI [51] of the same compound?
Answer: The TGI was 69.7 µM.

Question: What about the TGI [52] of the same compound?
Answer: Its TGI is greater than 100 µM.

Question: And the TGI [53]?
Answer: Its TGI is greater than 23.3 µM.

Question: And the TGI [54]?
Answer: Its TGI is 14.9 µM.

Question: What about the TGI [55] of the same compound?
Answer: The TGI was 6.38 µM.

Question: What about the TGI [56] of the same compound?
Answer: The TGI was greater than 68.8 µM.

Question: What about the TGI [57] of the same compound?
Answer: The TGI was greater than 100 µM.

Question: And the TGI [58]?
Answer: The TGI was 23.2 µM.
